Key:
velvetleaf = assay: Test A postemergence; assay type: in vivo, Abutilon theophrasti; conditions: Postemergence
Procedure, shortened: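 Pre- and postemergence greenhouse test; loam+sand; cpd in non-phytotox. solvent/surfactant; post at 1–2 leaf, 2–10 cm; visual score ~10 d, 0 = none, 100 = complete control.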

johnsongrass = assay: Test C postemergence; assay type: in vivo, Sorghum halepense
Procedure, shortened: (§1)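 Visual control ratings on a 0–100 scale (100 = complete control) made against untreated controls after 13 to 15 days in greenhouse. Compounds applied in surfactant-containing solvent mixture, either preemergence to loam/sand-sown seeds or postemergence to 1- to 4-leaf plants (2–18 cm) in peat medium.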

foxtail, giant = assay: Test C postemergence; assay type: in vivo, Setaria faberii
Procedure, shortened: as §1

ragweed = assay: Test C preemergence; assay type: in vivo, Ambrosia elation; conditions: preemergence
Procedure, shortened: as §1

corn = assay: Test C preemergence; assay type: in vivo, Zea mays; conditions: preemergence
Procedure, shortened: as §1

galium = assay: Test C preemergence; assay type: in vivo, Galium aparine; conditions: preemergence
Procedure, shortened: as §1

blackgrass = assay: Test C preemergence; assay type: in vivo, Alopecurus myosuroides; conditions: preemergence
Procedure, shortened: as §1

oilseed rape = assay: Test C preemergence; assay type: in vivo, Brassica napus; conditions: preemergence
Procedure, shortened: as §1

soybean = assay: Test C preemergence; assay type: in vivo, Glycine max; conditions: preemergence
Procedure, shortened: as §1

wheat [1] = assay: Test C preemergence; assay type: in vivo, Triticum aestivum; conditions: preemergence
Procedure, shortened: as §1

pigweed = assay: Test C preemergence; assay type: in vivo, Amaranthus retroflexus; conditions: preemergence
Procedure, shortened: as §1

chickweed = assay: Test C postemergence; assay type: in vivo, Stellaria media
Procedure, shortened: as §1

waterhemp = assay: Test C preemergence; assay type: in vivo, Amaranthus rudis; conditions: preemergence
Procedure, shortened: as §1

lambsquarters = assay: Test C postemergence; assay type: in vivo, Chenopodium album
Procedure, shortened: as §1

wheat [2] = assay: Test C postemergence; assay type: in vivo, Triticum aestivum; conditions: postemergence
Procedure, shortened: as §1

[3] = Postemergence, 31 g ai/ha, visually evaluated after 13 to 15 days
[4] = postemergence, 62 g ai/ha, scale 0 to 100
[5] = postemergence, 250 g ai/ha, scale 0 to 100 (0 no effect, 100 complete control)
[6] = postemergence, 125 g ai/ha, scale 0 to 100, 0 no effect, 100 complete control
[7] = 31 g ai/ha, visual rating, scale 0 to 100 (0 no effect, 100 complete control), 13 to 15 days
[8] = 62 g ai/ha, scale 0 to 100 (0 no effect, 100 complete control), 13 to 15 days
[9] = 125 g ai/ha, 13 to 15 days, scale 0 to 100, 0 = no effect, 100 = complete control
[10] = 250 g ai/ha, scale 0 to 100, 0 is no effect, 100 is complete control

SMILES: CCCc1cc(C(=O)NC(C)C)nn1Cc1cc(C(F)(F)F)nn1C [Compound 201]
- Velvetleaf plant response rating (velvetleaf; 125 g ai/ha, 0 to 100 scale, 0 no effect, 100 complete control): 70
- Velvetleaf plant response rating (velvetleaf; 500 g ai/ha, 0 to 100 scale (0 no effect, 100 complete control)): 100
- Plant response rating (scale of 0 to 100 where 0 is no effect and 100 is complete control), Johnsongrass (johnsongrass; [3]): 5
- Johnsongrass plant response rating (johnsongrass; [4]): 5
- Plant response rating, Johnsongrass (johnsongrass; [5]): 85
- Plant response rating, Johnsongrass (johnsongrass; [6]): 30
- Plant response rating (scale of 0 to 100 where 0 is no effect and 100 is complete control), Foxtail, Giant (foxtail, giant; [3]): 10
- Foxtail, Giant plant response rating (foxtail, giant; [4]): 10
- Plant response rating, Foxtail, Giant (foxtail, giant; [5]): 85
- Plant response rating, Foxtail, Giant (foxtail, giant; [6]): 30
- Ragweed plant response rating (ragweed; [7]): 80
- Ragweed plant response rating (ragweed; [8]): 85
- Plant response rating, Ragweed (ragweed; [9]): 95
- Ragweed plant response rating (ragweed; [10]): 98
- Corn plant response rating (corn; [7]): 40
- Corn plant response rating (corn; [8]): 60
- Plant response rating, Corn (corn; [9]): 70
- Corn plant response rating (corn; [10]): 95
- Galium plant response rating (galium; [7]): 95
- Galium plant response rating (galium; [8]): 95
- Plant response rating, Galium (galium; [9]): 98
- Galium plant response rating (galium; [10]): 100
- Blackgrass plant response rating (blackgrass; [7]): 85
- Blackgrass plant response rating (blackgrass; [8]): 90
- Plant response rating, Blackgrass (blackgrass; [9]): 90
- Blackgrass plant response rating (blackgrass; [10]): 90
- Oilseed Rape plant response rating (oilseed rape; [7]): 100
- Oilseed Rape plant response rating (oilseed rape; [8]): 100
- Plant response rating, Oilseed Rape (oilseed rape; [9]): 100
- Oilseed Rape plant response rating (oilseed rape; [10]): 95
- Soybean plant response rating (soybean; [7]): 70
- Soybean plant response rating (soybean; [8]): 85
- Plant response rating, Soybean (soybean; [9]): 95
- Soybean plant response rating (soybean; [10]): 98
- Wheat plant response rating (wheat [1]; [7]): 80
- Wheat plant response rating (wheat [1]; [8]): 85
- Plant response rating, Wheat (wheat [1]; [9]): 90
- Wheat plant response rating (wheat [1]; [10]): 90
- Pigweed plant response rating (pigweed; [7]): 100
- Pigweed plant response rating (pigweed; [8]): 100
- Plant response rating, Pigweed (pigweed; [9]): 98
- Pigweed plant response rating (pigweed; [10]): 98
- Plant response rating (scale of 0 to 100 where 0 is no effect and 100 is complete control), Chickweed (chickweed; [3]): 75
- Chickweed plant response rating (chickweed; [4]): 80
- Plant response rating, Chickweed (chickweed; [5]): 85
- Plant response rating, Chickweed (chickweed; [6]): 85
- Waterhemp plant response rating (waterhemp; [7]): 100
- Waterhemp plant response rating (waterhemp; [8]): 100
- Plant response rating, Waterhemp (waterhemp; [9]): 98
- Waterhemp plant response rating (waterhemp; [10]): 98
- Plant response rating (scale of 0 to 100 where 0 is no effect and 100 is complete control), Lambsquarters (lambsquarters; [3]): 65
- Lambsquarters plant response rating (lambsquarters; [4]): 80
- Plant response rating, Lambsquarters (lambsquarters; [5]): 95
- Plant response rating, Lambsquarters (lambsquarters; [6]): 90
- Plant response rating, Wheat (wheat [2]; 250 g ai/ha, scale 0 to 100 (0 no effect, 100 complete control)): 10
- Wheat plant response rating (wheat [2]; scale 0 to 100): 5
